{"source": "paper PMC4155405", "about": "(Nature communications, 2014)", "key": {"[1]": {"test_system": "Wuhan95 virus", "assay_type": "cell-based"}, "[2]": {"test_system": "Jurkat cells", "conditions": "cited from earlier work"}, "[3]": {"test_system": "MDCK cells", "conditions": "cited from earlier work"}}}
{"smiles": "Nc1nc2c(ncn2[C@@H]2O[C@H](CO)[C@@H](O)[C@H]2O)c(=O)[nH]1", "note": "[guanosine]", "values": [{"measurement": "reversal of ribavirin inhibition of Wuhan95 replication by guanosine", "setting": "[1]", "value": "can restore Wuhan95 replication"}, {"measurement": "ATP relative to un-treated control cells", "setting": "[2]", "value": 40, "unit": "%"}, {"measurement": "GTP relative to un-treated control cells", "setting": "[2]", "value": 600, "unit": "%"}]}
{"smiles": "NC(=O)c1nc(F)c[nH]c1=O", "note": "[favipiravir]", "values": [{"measurement": "cytotoxicity in MDCK cells", "setting": "[3]", "value": "No cytotoxicity"}]}
